Consider 15 compounds from patent publication US20170304288A1, “Formulations of Methionine Aminopeptidase Inhibitors for Treating Infectious Diseases” (Texas Southern University, priority 2013, published 2017).

Series [1] has as its target T1, EfMetAP1 (Enterococcus faecalis, UniProt Q832M5).
T1 sequence (Q832M5 1-254): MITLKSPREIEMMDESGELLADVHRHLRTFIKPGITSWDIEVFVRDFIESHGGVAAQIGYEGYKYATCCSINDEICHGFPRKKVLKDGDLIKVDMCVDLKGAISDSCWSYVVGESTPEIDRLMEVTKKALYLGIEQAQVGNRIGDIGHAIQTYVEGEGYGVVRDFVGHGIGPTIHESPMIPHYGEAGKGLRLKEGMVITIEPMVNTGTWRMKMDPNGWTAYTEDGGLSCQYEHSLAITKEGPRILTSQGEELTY
The series can be described thus: EfMetAP1 inhibition, coupled methionine-proline aminopeptidase assay. Type of series: biochemical, E. faecalis. The procedure:
175,000 compounds were screened against EfMetAP1, using the coupled methionine-proline aminopeptidase spectrophotometric assay (FIG. 7A). The primary screen was performed at final concentrations of 30 μM in 384-well plates using a titertek instrument with liquid handling capabilities coupled to a spectrophotometer. The compounds were dissolved in dimethylsulfoxide (DMSO) and the total reaction volume was 50 μL where each reaction contained 40 mM Hepes buffer (pH 7.5), 100 mM NaCl, 100 μg/mL BSA, 0.1 U/mL ProAP, 1.5 mM CoCl2, 600 μM substrate (Met-Pro-pNA), and 1.38 μM EfMetAP1. The Enzyme was pre-incubated with compounds for 20 min at room temperature followed by addition of substrate. The reaction was incubated at room temperature for 30 min and monitored at 405 nm on a spectrophotometer. […] The background hydrolysis was corrected and the data was fitted against the sigmoidal-dose response (variable slope) equation using GraphPad prism software.

Series [2] has as its target T2, LmMetAP1 (Leishmania major, UniProt Q4QDG7).
T2 sequence (Q4QDG7 1-401): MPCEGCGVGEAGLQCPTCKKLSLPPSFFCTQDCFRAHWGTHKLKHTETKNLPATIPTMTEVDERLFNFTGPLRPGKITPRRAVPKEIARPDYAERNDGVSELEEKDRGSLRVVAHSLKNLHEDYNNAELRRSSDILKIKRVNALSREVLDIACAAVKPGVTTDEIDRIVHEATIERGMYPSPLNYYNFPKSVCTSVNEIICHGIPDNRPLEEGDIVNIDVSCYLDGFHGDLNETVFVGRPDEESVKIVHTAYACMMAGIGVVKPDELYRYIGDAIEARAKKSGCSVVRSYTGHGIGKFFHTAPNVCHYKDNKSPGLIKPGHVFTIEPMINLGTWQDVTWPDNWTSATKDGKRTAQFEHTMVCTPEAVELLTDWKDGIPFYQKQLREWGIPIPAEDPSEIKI
The series can be described thus: LmMetAP1 enzyme inhibition (l-Met-pNA). In kind it is biochemical.
From the text: After cloning, overexpressing and purifying the protein to near homogeneity, the chromogenic substrate I-methionine-p-nitroanalide (I-Met-pNA) (Sigma) was used to determine inhibition of the enzyme using various compounds (Mitra et al. 2006).

Series [3] concerns M. tuberculosis H37Ra. The series can be described thus: Activity against dormant (aged non-growing) M. tuberculosis, XTT. The conditions noted are these: for MIC: Mycobacterium tuberculosis, H37RA, read-out: MIC dormant M. tuberculosis Strain H37Ra. In kind it is cell-based, Mycobacterium tuberculosis. The procedure: The activity of the compounds in aged non-growing M. tuberculosis was achieved using a perister model at concentrations […] and monitored for three weeks. Briefly, 2 month old M. tuberculosis H37Ra culture was grown in 7H9 medium (Difco) with 10% albumin dextrose catalase (ADC) and 0.05% Tween 80. […] The compound was diluted from a 10 mM (in DMSO) to 10 μM (final concentration) and incubated with the bacilli in […] 7H9 medium (pH 5.5) without ADC in a 96-well plate for three days without shanking under 1% oxygen in a hypoxic chamber. This assay was performed in duplicates with Rifampin (5 mg/mL). Following a 3 day drug exposure, bacilli viability was determined by adding […] of 1 mg/mL of XTT (2,3-bis-(2-methoxy-4-nitro-5-sulfophenyl)-2H-tetrazolium-5-carboxanilide) and incubated at 37° C. for up to 7 days. The 96 well plates were then read at OD 485 nm.
On the technique in general: Formazan colour is commonly taken as a measure of viable cells.

Series [4] relates to M. tuberculosis CDC 1551. The series can be described thus: Minimum Inhibitory Concentration in replicating M. tuberculosis. As to conditions: replicating culture; for MIC: Mycobacterium tuberculosis, CDC1551, read-out: Minimum Inhibitory Concentration Wild-type M. tuberculosis Strain CDC1551. In kind it is cell-based, Mycobacterium tuberculosis.
Series [5] relates to HIV-1 transcription. The conditions noted are these: Debebe et. al. 2007; cited from earlier work.
Series [6] deals with HsMetAP2 (Homo sapiens, UniProt P50579). The series can be described thus: MetAP enzyme inhibition IC50. Type of series: biochemical. The procedure: (§1) The enzyme was pre-incubated with compounds for 20 minutes at room temperature followed by addition of substrate. The reaction was incubated at room temperature for 30 min and monitored at 405 nm on a spectrophotometer. The background hydrolysis was subtracted and the data was fitted to a four-parameter logistic (variable slope) equation using GraphPad Prism software.
HsMetAP2, sequence (P50579 whole entry): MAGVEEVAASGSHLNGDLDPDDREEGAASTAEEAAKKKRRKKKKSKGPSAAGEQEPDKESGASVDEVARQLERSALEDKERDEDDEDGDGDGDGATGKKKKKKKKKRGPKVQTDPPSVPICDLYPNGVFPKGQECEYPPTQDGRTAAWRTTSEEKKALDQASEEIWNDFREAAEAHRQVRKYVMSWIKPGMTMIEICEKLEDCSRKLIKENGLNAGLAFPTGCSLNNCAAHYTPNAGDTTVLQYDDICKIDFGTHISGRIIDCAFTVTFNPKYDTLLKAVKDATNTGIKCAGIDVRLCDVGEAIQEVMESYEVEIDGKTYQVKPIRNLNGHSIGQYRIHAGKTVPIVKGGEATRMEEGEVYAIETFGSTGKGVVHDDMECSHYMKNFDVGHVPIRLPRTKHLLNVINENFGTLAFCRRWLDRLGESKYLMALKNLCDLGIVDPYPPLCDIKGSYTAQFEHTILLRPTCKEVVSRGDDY

Series [7] has as its target HsMetAP1 (Homo sapiens, UniProt P53582). The series can be described thus: MetAP enzyme inhibition IC50. In kind it is biochemical. On the procedure: as §1
In series [8] the test system is Wild-type L. major promastigotes. The series can be described thus: Leishmania major luciferase assay, wild type promastigotes. The conditions noted are these: read-out: Wild-type L. major promastigotes EC50.
Method: Promastigote forms of L. major strain Friedlin clone V1 expressing firefly luciferase were grown in M199 medium supplemented with hemin and 10% fetal bovine serum (FBS) inactivated at 56° C. for 30 minutes and treated with 50 ng/mL streptothricin neosulfate for maintenance of LUC gene.
(§2) Compounds were screened against L. major strain friedlin clone V1 promastigotes expressing firefly luciferase at concentrations ranging from 100 μM-780 nM in a 96 well plate. These experiments were done in triplicates using L. major media and 10^6 parasites per well. The plates were incubated for 24, 48, 72 and 96 hours at 28° C. Amphotericin B (AB) was used as a positive control at 5 μM as a comparison to the leishmanicidal activity of the inhibitors. The inhibitory effects of the compounds were assessed by monitoring parasite survival through luciferase activity. The substrate 5′-fluoroluciferin (ONE-Glo Luciferase Assay System, Promega, Madison, Wis.) was added according to the manufacturer's protocol after each time point. The plates were read using a luminometer (Luminoskan, Thermo Scientific, Rockford, Ill.). Data was analyzed using GraphPad Prism Software (GraphPad Software, Inc., La Jolla, Calif.).
The test system of series [9] is HIV-1 (89.6 strain). The series can be described thus: microbe, parasite or virus in culture. In kind it is cell-based. The conditions noted are these: for inhibition of HIV-1 p24 antigen production: HIV-1 infected PBMC, ELISA; for inhibitory concentration equivalent to negative control (blank): p24 ELISA; for IC50: Human immunodeficiency virus 1, PBMC, read-out: concentration required for 50% inhibition of HIV1 p24 produced, primary screen, preliminary.

Series [10] deals with L. major promastigotes over-expressing LmMetAP1. The series can be described thus: Leishmania major luciferase assay, promastigotes over-expressing LmMetAP1. In kind it is cell-based. The conditions noted are these: read-out: L. major promastigotes over-expressing LmMetAP1 EC50.
Method: as §2
LmMetAP1 was cloned in the Leishmania expression vector pXG, and parasites were transfected. The parasites overexpressing LmMetAP1 were selected for and cloned.
Series [11] relates to E. faecalis OG1RF. The series can be described thus: Liquid-based C. elegans infection model, survival. Type of series: in vivo, Enterococcus faecalis. As to conditions: C. elegans.
Series [12] deals with E. faecalis V583. The series can be described thus: Liquid-based C. elegans infection model, survival.
In series [13] the test system is E. faecalis OG1RF. The series can be described thus: Assay of E. faecalis inhibition (MIC) in BHI culture. The conditions noted are these: Enterococcus faecalis, read-out: Minimum Inhibitory Concentration MIC30 OG1RF.
Series [14] concerns E. faecalis V583. The series is described as above.
Series [15] has as its system M. bovis BCG. In kind it is cell-based, Mycobacterium bovis. The conditions noted are these: for CFU from cellular lysates (intracellular M. bovis BCG): 7 d p.i., RIF 5.0 μg/mL, INH 0.1 μg/mL.
For series [16], the target named is MtMetAP1a (Mycobacterium tuberculosis, UniProt P9WK21). The series can be described thus: MetAP enzyme inhibition IC50 (Met-Pro-pNA coupled assay). In kind it is biochemical.
MtMetAP1a, sequence (P9WK21 whole entry): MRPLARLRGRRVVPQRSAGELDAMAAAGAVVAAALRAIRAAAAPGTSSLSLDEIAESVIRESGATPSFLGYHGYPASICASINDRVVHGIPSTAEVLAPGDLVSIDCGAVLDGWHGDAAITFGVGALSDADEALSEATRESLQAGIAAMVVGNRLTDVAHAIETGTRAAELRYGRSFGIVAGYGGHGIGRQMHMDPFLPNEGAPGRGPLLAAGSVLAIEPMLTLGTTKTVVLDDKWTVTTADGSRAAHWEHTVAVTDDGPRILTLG
Series [17] addresses MtMetAP1c (Mycobacterium tuberculosis, UniProt P9WK19). The series is described as above. Type of series: biochemical. On the procedure: A primary high throughput screen was conducted using MAP-C2 microplate processor (Titertek Instruments, Inc., Huntsville, Ala. USA). A library of 175,000 compounds at 30 μM were assayed in a 384 well plates using a dipeptide chromogenic substrate, methionine-proline coupled to p-Nitroaniline (Met-Pro-pNA). Each compound was dissolved in DMSO and stored at −20° C. until use. The total reaction volume was 50 μL, and each reaction contained 40 mM HEPES buffer (pH 7.5), 100 mM NaCl, […], 0.1 U/mL ProAP, 1.5 mM CoCl2, […] (Met-Pro-pNA), and 252 nM MtMetAP1c. The enzyme was pre-incubated with compounds for 20 minutes at room temperature followed by addition of […]. The reaction was then incubated at room temperature for 30 min and monitored at 405 nm on a spectrophotometer.
as §1

Series [18] deals with C. elegans. The series can be described thus: Toxicity in non-infected C. elegans. As to conditions: 10 μg/mL.

Structures are written as SMILES. ≈ marks a conversion by molar mass, not a printed value. Where two headings read alike, the source gives them in different places.

MtMetAP1c, sequence (P9WK19 whole entry): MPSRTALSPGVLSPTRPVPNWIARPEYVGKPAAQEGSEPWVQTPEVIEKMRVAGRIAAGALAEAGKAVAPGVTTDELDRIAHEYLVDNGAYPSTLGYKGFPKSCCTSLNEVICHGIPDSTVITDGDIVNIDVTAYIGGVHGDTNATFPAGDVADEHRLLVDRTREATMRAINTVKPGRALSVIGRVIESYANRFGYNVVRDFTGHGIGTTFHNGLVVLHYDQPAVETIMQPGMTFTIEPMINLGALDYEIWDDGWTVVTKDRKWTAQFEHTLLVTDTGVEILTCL

`CC(=O)Oc1c(Cl)cc(Cl)c2cccnc12`: the IC50 in series [1] stood at 14.6 µM.

Turning to `O=C(N/N=C/c1c(O)ccc2ccccc12)c1ccncc1` [Compound 1, 2-hydroxy-1-naphthylaldehyde isonicotinoyl hydrazone], the IC50 is 10 to 100 µM in series [2] (read-out: MetAP IC50 LmMetAP1), 2 µM in [5], 146 µM in [6] and 315 µM in [7]. Moreover, in series [3] (XTT), the “concentration that perturbed the growth of aged non-growing Mtb bacilli” value stood at 1.82 µg/mL. The MIC in [4] is under 10 µg/mL. The EC50 is 0.64 µM in series [8] and over 10 µM in series [10]. In addition, the “inhibition of HIV-1 p24 antigen production” value (“inhibition” below) in series [9] was “inhibited the production of HIV-1 p24 antigen in a dose response manner”. The “inhibitory concentration equivalent to negative control (blank)” value in [9] came out at 274.0 nM.

In series [2], `Oc1ccccc1/C=N/Nc1ncnc2sc3c(c12)CCCC3` [Compound 2, 2-{(E)-[2-(5,6,7,8-tetrahydro[1]benzothieno[2,3-d]pyrimidin-4-yl)hydrazinylidene]methyl}phenol] came in with an IC50 of over 2.5 µM. Further, in [4], the MIC was under 10 µg/mL. Moreover, in series [8], the EC50 stood at 0.375 µM. For the same compound, in series [9], the “inhibition” value is recorded as “inhibited p24 antigen productions in a dose dependent manner” and the “inhibitory concentration equivalent to negative control (blank)” value came to 234.0 nM. Moreover, the EC50 in [10] was found to be 9 µM.

As for `Cc1nc(-c2ccccn2)nc(N(C)Cc2ccccc2)c1Cl` [Compound 3, N-benzyl-5-chloro-N,6-dimethyl-2-(pyridin-2-yl)pyrimidin-4-amine], the IC50 in series [2] was over 1 µM. Besides, the MIC in [4] is under 5 µg/mL. The EC50 in series [8] came to 0.243 µM; in series [10], 5 µM. For the same compound, the “inhibition” value in [9] is reported as “inhibited p24 antigen productions in a dose dependent manner”.

Regarding `Clc1cc2c(c3ncccc13)OCN(C1CCCCC1)C2` [Compound 8, 6-chloro-3-cyclohexyl-3,4-dihydro-2H-[1,3]oxazino[5,6-h]quinolin], the IC50 is 5.24 µM in series [1] and over 3.75 µM in [9]. For the same compound, in series [11], the “MPC (Minimum Protective Concentration) OG1RF” value is 4e-11 µg/mL. In addition, the “MmaxPC (Maximum Protective Concentration) OG1RF” value in series [11] came to 4e-08 µg/mL. In series [12], the “MPC (Minimum Protective Concentration) V583” value turned out to be 4e-11 µg/mL. Moreover, the MIC in series [13] fell in the range of 5 to 10 µg/mL (≈ 16.5 to 33 µM); in series [14] (Enterococcus faecalis, V583, read-out: Minimum Inhibitory Concentration MIC30 V583), 0.5 to 1.5 µg/mL (≈ 1.65 to 4.95 µM). The “Minimum Inhibitory Concentration MIC30 V583” value in series [14] lay in the range of 0.50 to 1.50 µg/mL.

Consider `NNC(=O)c1ccncc1` [Isoniazid, reference compound], for which, in series [15], the “CFU from cellular lysates (intracellular M. bovis BCG)” value is “dramatically reduced CFU”. Besides, the IC50 in series [9] is over 2 µM.

Turning to `CO[C@H]1/C=C/O[C@@]2(C)Oc3c(C)c(O)c4c(O)c(c(/C=N/N5CCN(C)CC5)c(O)c4c3C2=O)NC(=O)/C(C)=C\C=C\[C@H](C)[C@H](O)[C@@H](C)[C@@H](O)[C@@H](C)[C@H](OC(C)=O)[C@@H]1C` [RIF, Rifampicin], in series [15], the “CFU from cellular lysates (intracellular M. bovis BCG)” value is on record as “dramatically reduced CFU”. In series [15] (macrophages, 7 days), the “intracellular BCG by flow cytometry” value is “Reduction”.

For the compound `O=C(N/N=C/c1c(O)ccc2ccccc12)c1ccncc1` [drawing 22], the IC50 amounted to 4.9 µM in series [16], 5.3 µM in series [17], 146 µM in [6] and 315 µM in [7]. Moreover, in series [4], the “Minimum Inhibitory Concentration Wild-type M. tuberculosis Strain CDC1551” value is under 10.0 µg/mL.

Turning to `Oc1ccccc1/C=N/Nc1ncnc2sc3c(c12)CCCC3` [drawing 23], the IC50 in [16] and in [17] was under 30 µM throughout. In addition, in series [4], the “Minimum Inhibitory Concentration Wild-type M. tuberculosis Strain CDC1551” value was under 10.0 µg/mL.

As for `Cc1nc(-c2ccccn2)nc(N(C)Cc2ccccc2)c1Cl` [drawing 24], in series [4], the “Minimum Inhibitory Concentration Wild-type M. tuberculosis Strain CDC1551” value was under 5.0 µg/mL.

Regarding `O=C(N/N=C/c1c(O)ccc2ccccc12)c1ccncc1` [drawing 25], the MIC in series [3] was determined as 6.25 µM (≈ 1.82 µg/mL).

For the compound `Oc1ccccc1/C=N/Nc1ncnc2sc3c(c12)CCCC3` [drawing 26], the MIC in [3] amounted to 25 µM (≈ 8.11 µg/mL).

In turn, `Oc1c(Br)cc(Cl)c2cccnc12` [drawing 36] gave an IC50 in series [1] of 12 µM.

`Oc1c(I)cc(Cl)c2cccnc12` [drawing 38]: the IC50 in [1] was 18.4 µM.

As for `CN(C)[C@@H]1C(O)=C(C(N)=O)C(=O)[C@@]2(O)C(O)=C3C(=O)c4c(O)cccc4[C@@](C)(O)[C@H]3C[C@@H]12` [tetracycline], the “survival of non-infected animals” value in series [18] is given as “did not decrease survival”.

A word on the EC50: it is the concentration needed to bring the measured effect to its halfway point.
